Measurements as given in patent US7619089B2, “Derivatives of N-heterocyclylmethylbenzamides, preparation method thereof and application of same in therapeutics” (Sanofi-Aventis, priority 2003, dated 2009).
Structures can show the parent of a compound that is named as a salt.

Each compound was assayed against T1, transporter glyt2 (Mus musculus, UniProt Q761V0) (assay: Transport of glycine ([14C]glycine capture) in mouse spinal cord homogenate). Details: 10 μM [14C]glycine, 10 min at 25° C., pH 7.4, read-out: IC50, concentration reducing by 50% the specific capture of glycine.
T1 construct: from tissue; host or cells: mouse spinal cord homogenate (Iffa Crédo OF1 male mice)
T1 sequence (Q761V0 1-799): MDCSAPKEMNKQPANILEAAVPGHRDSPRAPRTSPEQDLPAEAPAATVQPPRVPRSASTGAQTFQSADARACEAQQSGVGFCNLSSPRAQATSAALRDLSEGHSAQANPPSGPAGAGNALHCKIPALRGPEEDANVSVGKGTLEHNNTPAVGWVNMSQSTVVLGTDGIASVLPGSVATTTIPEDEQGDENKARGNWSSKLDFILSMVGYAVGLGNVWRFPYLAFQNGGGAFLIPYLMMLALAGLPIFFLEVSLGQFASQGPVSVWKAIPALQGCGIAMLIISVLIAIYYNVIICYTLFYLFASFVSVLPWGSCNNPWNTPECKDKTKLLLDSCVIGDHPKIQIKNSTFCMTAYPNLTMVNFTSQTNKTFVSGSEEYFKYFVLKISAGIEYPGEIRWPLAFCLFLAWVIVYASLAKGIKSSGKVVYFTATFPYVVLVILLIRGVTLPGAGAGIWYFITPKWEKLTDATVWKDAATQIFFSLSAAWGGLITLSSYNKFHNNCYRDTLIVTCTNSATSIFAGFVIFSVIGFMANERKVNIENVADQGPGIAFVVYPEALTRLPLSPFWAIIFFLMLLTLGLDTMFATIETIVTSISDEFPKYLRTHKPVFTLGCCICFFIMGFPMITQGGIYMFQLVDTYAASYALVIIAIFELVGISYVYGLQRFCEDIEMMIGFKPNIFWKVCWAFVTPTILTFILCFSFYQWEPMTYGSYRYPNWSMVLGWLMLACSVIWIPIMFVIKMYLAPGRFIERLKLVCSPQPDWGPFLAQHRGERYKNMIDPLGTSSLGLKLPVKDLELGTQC
Assay type: biochemical
From the text: Study of the Transport of Glycine in Mouse Spinal Cord Homogenate
The capture of [^14C]glycine by the transporter glyt2 is studied in mouse spinal cord homogenate by measuring the radioactivity incorporated in the presence or in the absence of the compound to be studied.
After the animals have been humanely killed (Iffa Crédo OF1 male mice weighing 20 to 25 g on the day of the experiment), the spinal cord of each animal is rapidly removed, weighed and stored on ice. The samples are homogenized in a Krebs-HEPES ([4-(2-hydroxyethyl)piperazine]1-ethanesulfonic acid) buffer, pH 7.4, at a rate of 25 ml/g of tissue.
50 μl of homogenate are preincubated for 10 min at 25° C. in the presence of Krebs-HEPES buffer, pH 7.4 and of compound to be studied at various concentrations, or of 10 mM glycine in order to determine the nonspecific capture. The [^14C]glycine (specific activity=112 mCi/mmol) is then added for 10 min at 25° C. at the final concentration of 10 μM. The reaction is stopped by filtration under vacuum and the radioactivity is estimated by solid scintillation by counting on a Microbeta Tri-lux™ counter.
The efficacy of the compound is determined by the concentration IC50 capable of reducing by 50% the specific capture of glycine, defined by the difference in radioactivity incorporated by the control batch and the batch which received the 10 mM glycine.

| SMILES | IC50 |
| --- | --- |
| O=C(N[C@@H](c1ccccc1)[C@@H]1CC2CCN1CC2)c1c(Cl)ccc(C(F)(F)F)c1Cl [Compound No. 17] | 0.69 µM |

What follows are compounds tested against T2, native human transporter glyt1 (Homo sapiens, UniProt P48067) (assay: Transport of glycine ([14C]glycine capture) in SK-N-MC cells expressing the native human transporter glyt1). Details: 10 μM [14C]glycine, 10 min at 37° C., pH 7.4, read-out: IC50, concentration which reduces by 50% the specific capture of glycine.
T2 construct: expressing the native human transporter glyt1; endogenous in cells; host or cells: SK-N-MC cells (human neuroepithelial cells)
T2 sequence (P48067 1-706): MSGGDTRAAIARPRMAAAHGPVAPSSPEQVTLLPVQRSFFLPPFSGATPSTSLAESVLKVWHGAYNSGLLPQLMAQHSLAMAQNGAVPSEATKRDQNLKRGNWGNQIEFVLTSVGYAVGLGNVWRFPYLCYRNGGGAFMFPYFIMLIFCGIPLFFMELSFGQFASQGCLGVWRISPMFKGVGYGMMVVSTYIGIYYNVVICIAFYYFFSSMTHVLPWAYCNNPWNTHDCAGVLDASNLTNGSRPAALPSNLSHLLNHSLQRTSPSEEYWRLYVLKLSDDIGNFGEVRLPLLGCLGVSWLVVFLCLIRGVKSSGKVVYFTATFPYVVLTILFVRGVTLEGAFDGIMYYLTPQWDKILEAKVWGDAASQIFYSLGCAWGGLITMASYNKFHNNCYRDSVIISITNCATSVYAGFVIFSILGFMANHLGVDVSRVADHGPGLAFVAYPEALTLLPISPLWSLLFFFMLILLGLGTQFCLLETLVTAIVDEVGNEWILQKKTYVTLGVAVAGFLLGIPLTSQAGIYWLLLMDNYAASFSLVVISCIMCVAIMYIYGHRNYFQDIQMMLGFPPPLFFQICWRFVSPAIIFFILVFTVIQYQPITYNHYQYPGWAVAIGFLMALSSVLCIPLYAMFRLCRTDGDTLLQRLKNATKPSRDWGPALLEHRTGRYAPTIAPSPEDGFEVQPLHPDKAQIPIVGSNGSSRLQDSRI
Assay type: cell-based
Procedure: Study of the Transport of Glycine in SK-N-MC Cells Expressing the Native Human Transporter Glyt1.
The capture of [^14C]glycine is studied in SK-N-MC cells (human neuroepithelial cells) expressing the native human transporter glyt1 by measuring the radioactivity incorporated in the presence or in the absence of the test compound. The cells are cultured in a monolayer for 48 h in plates pretreated with fibronectin at 0.02%. On the day of the experiment, the culture medium is removed and the cells are washed with a Krebs-HEPES ([4-(2-hydroxyethyl)piperazine]1-ethanesulfonic acid) buffer at pH 7.4. After a preincubation of 10 min at 37° C. in the presence either of buffer (control batch), or of test compound at various concentrations, or of 10 mM glycine (determination of the nonspecific capture), 10 μM [^14C]glycine (specific activity 112 mCi/mmol) are then added. The incubation is continued for 10 min at 37° C., and the reaction is stopped by 2 washes with a Krebs-HEPES buffer at pH 7.4. The radioactivity incorporated by the cells is then estimated after adding 100 μl of liquid scintillant and stirring for 1 h. The counting is performed on a Microbeta Tri-lux™ counter. The efficacy of the compound is determined by the IC50, the concentration of the compound which reduces by 50% the specific capture of glycine, defined by the difference in radioactivity incorporated by the control batch and the batch which received the glycine at 10 mM.

| SMILES | IC50 |
| --- | --- |
| O=C(NC(c1ccccc1)C1CC2CCN1CC2)c1cccc(C(F)(F)F)c1Cl (stereo not drawn) [Compound No. 3, threo-2-Chloro-N-[(1-azabicyclo[2.2.2]oct-2-yl)phenyl-methyl]-3-trifluoromethylbenzamide hydrochloride 1:1] | 0.017 µM |
| O=C(NC(c1ccccc1)C1CC2CCN1CC2)c1c(Cl)ccc(C(F)(F)F)c1Cl (stereo not drawn) [Compound No. 4, threo-2,6-Dichloro-N-[(1-azabicyclo[2.2.2]oct-2-yl)phenylmethyl]-3-trifluoromethylbenzamide hydrochloride 1:1] | 0.004 µM |
| C=CC1CN2CCC1CC2C(NC(=O)c1cccc(C(F)(F)F)c1Cl)c1ccnc2ccccc12 [Compound No. 14, 2-Chloro-N-(8α,9S)cinchonan-9-yl)-3-trifluoromethyl-benzamide hydrochloride 2:1] | 0.07 µM |
| O=C(N[C@@H](c1ccccc1)[C@@H]1CC2CCN1CC2)c1c(Cl)ccc(C(F)(F)F)c1Cl [Compound No. 17] | 0.001 µM |
| O=C(NC(c1ccc(F)cc1)C1CC2CCN1CC2)c1c(Cl)ccc(C(F)(F)F)c1Cl (stereo not drawn) [Compound No. 26, threo-N-[1-Azabicyclo[2.2.2]oct-2-yl(4-fluorophenyl)-methyl]-2,6-dichloro-3-(trifluoromethyl)benzamide hydrochloride 1:1] | 0.07 µM |
